Tested on: TBI-associated cerebral edema, controlled cortical impact model
Experiment: Cerebral edema as percentage brain water content (wet-dry method) after controlled cortical impact brain injury
Assay type: in vivo
Conditions: rat, 400 mg/kg administered 30 minutes after cortical impact injury, measured 24 hr after injury, versus control animals
Procedure: A number of studies have reported that blood-brain barrier compromise and cerebral edema are key contributors to the elevation of ICP. Penicillamine is a copper scavenger that is FDA approved for the treatment of Wilson's disease. Therefore penicillamine was used in this study to determine if sequestration of copper would restore TBI-associated BBB permeability and cerebral edema. […] BBB permeability was assessed by measuring the extravasation of Evans Blue dye as described in Zhao, et al., 2007 (Zhao, J., Moore, A. N., Redell, J. B. and Dash, P. K. 2007. Enhancing expression of Nrf2-driven genes protects the blood brain barrier after brain injury. J. Neurosci. 27, 10240-10248).
Cerebral edema was assessed by determining the percentage brain water content using the wet-dry method as described previously (McIntosh, T. K., Soares, H., Thomas, M. and Cloherty, K. 1990. Development of regional cerebral oedema after lateral fluid-percussion brain injury in the rat. Acta Neurochir. Suppl (Wien.) 51, 263-264; Shohami, E., Novikov, M. and Mechoulam, R. 1993. A nonpsychotropic cannabinoid, HU-211, has cerebroprotective effects after closed head injury in the rat. J. Neurotrauma 10, 109-119). BBB permeability and cerebral edema were measured 24 hr after injury, in independent sets of animals.

SMILES: CC(C)(S)[C@@H](N)C(=O)O [penicillamine, Penicillamine]
- effect on cerebral edema (percentage brain water content): did not have any effect
